Data set [1] can be described thus: Toxicity in female Balb/c nude mouse xenografted with human MDA-MB-231 cells expressing luciferase assessed as appearance of kidney lesions at 12 to 50 mg/kg, ip administered every 3 days and measured after 30 days by H and E staining based analysis. The following applies: in vivo, 720 h, dose 12-50 mg/kg, time 30 day. It counts as organism-based. A general note: In xenograft studies the graft and the host belong to different species.

For data set [2], the target named is T1, Lysine-specific histone demethylase 1A (Homo sapiens, UniProt O60341). Description: Non-competitive inhibition of LSD1 (unknown origin) using H3K4me2 as substrate by Lineweaver-Burk plot analysis.
Data set [3] in a line: Toxicity in female Balb/c mouse assessed as histological changes in liver at 50 mg/kg, ip administered every other day for 7 times by H and E staining based analysis. Format: organism-based. To be noted: in vivo.
Data set [4] has as its system MDA-MB-231. Description: Antimetastatic activity against LSD1 knockout human MDA-MB-231 cells xenografted in wild type zebrafish yolk sac assessed as inhibition of cell migration at 12.5 mg/L incubated for 3 days by fluorescence microscopic analysis. The following applies: time 3.0 day. It counts as functional, cell-based.
Data set [5] in a line: Toxicity in female Balb/c mouse assessed as effect on LDH level at 50 mg/kg, ip administered every other day for 7 times. It counts as organism-based. To be noted: in vivo.
Data set [6] in a line: Toxicity in female Balb/c mouse assessed as histological changes in heart at 50 mg/kg, ip administered every other day for 7 times by H and E staining based analysis. To be noted: in vivo. It counts as organism-based.
The nature of data set [7]: Cytotoxicity against human MCF-10A cells assessed as cell viability at 0 to 100 uM incubated for 24 hrs by MTT assay. It counts as toxicity, cell-based. The following applies: dose 0-100 µM, read-out: Activity. On the technique in general: Formazan colour is commonly taken as a measure of viable cells.
In data set [8] the target is T1, Lysine-specific histone demethylase 1A. Description: Binding affinity to recombinant LSD1 (unknown origin) at S817 residue by LC-MS/MS analysis.
Data set [9] is described as follows: Half-life in male Sprague-Dawley rat at 10 mg/kg, ip measured at 0 to 1440 mins by LC-MS/MS analysis. Format: ADME, organism-based. The following applies: in vivo, time 0-1440 min.

The source made the active and inactive calls. A value given as a limit tells only on which side of the number the result lay.

As a reminder, the half-life is the time needed for the level to fall by half in the phase considered. Read a high half-life as slow decline. On to `C[C@@H]1O[C@H](OC[C@H]2O[C@@H](OCCc3ccc(O)c(O)c3)[C@H](O)[C@@H](OC(=O)/C=C/c3ccc(O)c(O)c3)[C@@H]2O)[C@H](O)[C@H](O)[C@H]1O`, for which the Activity entry was “Non-toxic” in data set [1]; “Non-toxic” in [3]; “Active; No Significant Difference With Lsd1 Knockout Control Group” in data set [4]; “Non-toxic” in [5]; “Non-toxic” in data set [6]. Besides, in [2], the inhibition entry was “Active”. For the same molecule, the viability at 24 h, up to 100 µM in data set [7] was more than 90%. The outcome in [8] was Active. Besides, the half-life in data set [9] was 34.8 min.

(Values after ChEMBL document CHEMBL6078646, “Target Ligand Separation and Identification of Isoforsythiaside as a Histone Lysine-Specific Demethylase 1 Covalent Inhibitor Against Breast Cancer Metastasis” (J Med Chem, 2024).)
